From US8795650B2, “Derivation of unlimited quantities of neutrophils or monocyte/dendritic cells” (The Regents of the University of California, priority 2004, dated 2014)

Test system: SCF Hoxb8-ER progenitors
Details: SCF medium supplemented with the cytokine
Excerpt: Cells were photographed 6 days after differentiation was initiated by removal of estradiol. […] Distribution of mature cell types is indicated below each column, as measured at the end of the 6 day differentiation.

Substance	progenitors maturing as macrophages (6 day differentiation) [%]	expansion during differentiation (estradiol removed) [fold]	impact on neutrophil-committed differentiation
GM-CSF	16	830	
Erythropoietin			no impact
